Assay results as given in ChEMBL document CHEMBL1201862, “PubChem BioAssay data set” (2004).
Active and inactive are the calls of the source.

Legend:
[1] = HepG2 cell cytotoxicity, dose response, cytotoxicity control, plate reader, cherry-pick, antagonist series (AID 743416); type: functional, cell-based
[2] = LGR2 antagonists, dose response, cell-based, HEK293, CRE-luciferase reporter, cherry pick, set 2 (AID 743343); type: functional;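 further: transfected cells were stimulated with diluted bursicon conditioned medium after compound addition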
[3] = MC4R antagonists, dose response, counter-screen for LGR2 antagonist project, cell-based, plate reader, cherry pick (AID 743444); type: functional;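 further: transfected HEK 293 cells stimulated with alpha-MSH peptide; potency of inhibitors of the alpha-MSH evoked signal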
[4] = HEK293 cell cytotoxicity, dose response, cytotoxicity control, plate reader, cherry-picked samples (AID 743446); type: functional, cell-based
[5] = target: SWI/SNF-related matrix-associated actin-dependent regulator of chromatin subfamily A member 2 (Homo sapiens, UniProt P51531); test: Luminescence-based cell-based high throughput dose response assay to identify activators of the function of SWI/SNF related, matrix associated, actin dependent regulator of chromatin, subfamily a, member 2 (SMARCA2, BRM).; type: functional
[6] = Counterscreen for activators of the function of SWI/SNF related, matrix associated, actin dependent regulator of chromatin, subfamily a, member 2 (SMARCA2, BRM): Luminescence-based cell-based high throughput dose response assay to identify non-selective compounds using the VP16 reporter assay.; type: functional
Vero = test: Vero cell toxicity, dose response, cytotoxicity control, plate reader, cherry-pick samples (AID 687020); type: functional, cell-based; settings: Chlorocebus sabaeus
Caspase-3 = target: T1, Caspase-3 (Homo sapiens, UniProt P42574); type: functional;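 further: Dose-response selectivity test against caspase-3 for candidate inhibitors of sentrin-specific proteases (SENPs)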
T1 sequence (P42574 whole entry): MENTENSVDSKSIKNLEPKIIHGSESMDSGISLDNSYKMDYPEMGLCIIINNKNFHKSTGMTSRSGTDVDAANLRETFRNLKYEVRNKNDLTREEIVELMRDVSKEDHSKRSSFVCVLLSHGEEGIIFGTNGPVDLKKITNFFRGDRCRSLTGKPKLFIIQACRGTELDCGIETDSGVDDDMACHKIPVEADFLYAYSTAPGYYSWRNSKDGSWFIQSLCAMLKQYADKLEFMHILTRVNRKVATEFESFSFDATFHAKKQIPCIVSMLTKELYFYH

[7] = target: T2, Sentrin-specific protease 7 (Homo sapiens, UniProt Q9BQF6); type: functional;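 further: Luminescence-based dose-response confirmation of ultra-high-throughput screening hits, measuring inhibition of SENP7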
T2 sequence (Q9BQF6 whole entry): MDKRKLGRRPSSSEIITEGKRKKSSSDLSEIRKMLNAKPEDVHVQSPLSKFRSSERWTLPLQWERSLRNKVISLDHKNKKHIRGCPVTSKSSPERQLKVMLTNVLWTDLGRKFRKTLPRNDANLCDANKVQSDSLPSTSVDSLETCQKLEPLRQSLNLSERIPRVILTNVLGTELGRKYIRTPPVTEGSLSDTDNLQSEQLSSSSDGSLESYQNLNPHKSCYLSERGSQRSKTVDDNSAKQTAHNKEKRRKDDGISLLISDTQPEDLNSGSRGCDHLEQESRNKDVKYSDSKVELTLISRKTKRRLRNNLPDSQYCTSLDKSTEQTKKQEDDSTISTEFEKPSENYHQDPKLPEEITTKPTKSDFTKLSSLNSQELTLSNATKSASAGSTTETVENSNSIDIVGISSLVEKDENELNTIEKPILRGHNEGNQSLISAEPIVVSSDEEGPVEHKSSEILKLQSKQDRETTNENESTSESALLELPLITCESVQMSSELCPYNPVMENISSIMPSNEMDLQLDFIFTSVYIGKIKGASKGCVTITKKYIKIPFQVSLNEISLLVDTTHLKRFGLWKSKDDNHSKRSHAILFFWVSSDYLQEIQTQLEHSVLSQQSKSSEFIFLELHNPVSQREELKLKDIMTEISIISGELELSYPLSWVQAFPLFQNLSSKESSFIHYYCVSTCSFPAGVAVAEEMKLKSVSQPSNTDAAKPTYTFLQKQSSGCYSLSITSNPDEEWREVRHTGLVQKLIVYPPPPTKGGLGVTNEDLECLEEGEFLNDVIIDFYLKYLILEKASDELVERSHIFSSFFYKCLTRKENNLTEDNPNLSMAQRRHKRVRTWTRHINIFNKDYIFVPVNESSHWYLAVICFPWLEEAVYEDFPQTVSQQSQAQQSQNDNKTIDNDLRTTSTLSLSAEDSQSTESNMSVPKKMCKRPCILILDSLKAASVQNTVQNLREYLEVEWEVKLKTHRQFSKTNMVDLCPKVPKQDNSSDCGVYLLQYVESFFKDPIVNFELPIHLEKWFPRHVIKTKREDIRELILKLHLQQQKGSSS

[8] = target: T3, Sentrin-specific protease 6 (Homo sapiens, UniProt Q9GZR1); type: functional;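 further: Luminescence-based dose-response confirmatory assay of SENP6 inhibition, following up an ultra-high-throughput screen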
T3 sequence (Q9GZR1 whole entry): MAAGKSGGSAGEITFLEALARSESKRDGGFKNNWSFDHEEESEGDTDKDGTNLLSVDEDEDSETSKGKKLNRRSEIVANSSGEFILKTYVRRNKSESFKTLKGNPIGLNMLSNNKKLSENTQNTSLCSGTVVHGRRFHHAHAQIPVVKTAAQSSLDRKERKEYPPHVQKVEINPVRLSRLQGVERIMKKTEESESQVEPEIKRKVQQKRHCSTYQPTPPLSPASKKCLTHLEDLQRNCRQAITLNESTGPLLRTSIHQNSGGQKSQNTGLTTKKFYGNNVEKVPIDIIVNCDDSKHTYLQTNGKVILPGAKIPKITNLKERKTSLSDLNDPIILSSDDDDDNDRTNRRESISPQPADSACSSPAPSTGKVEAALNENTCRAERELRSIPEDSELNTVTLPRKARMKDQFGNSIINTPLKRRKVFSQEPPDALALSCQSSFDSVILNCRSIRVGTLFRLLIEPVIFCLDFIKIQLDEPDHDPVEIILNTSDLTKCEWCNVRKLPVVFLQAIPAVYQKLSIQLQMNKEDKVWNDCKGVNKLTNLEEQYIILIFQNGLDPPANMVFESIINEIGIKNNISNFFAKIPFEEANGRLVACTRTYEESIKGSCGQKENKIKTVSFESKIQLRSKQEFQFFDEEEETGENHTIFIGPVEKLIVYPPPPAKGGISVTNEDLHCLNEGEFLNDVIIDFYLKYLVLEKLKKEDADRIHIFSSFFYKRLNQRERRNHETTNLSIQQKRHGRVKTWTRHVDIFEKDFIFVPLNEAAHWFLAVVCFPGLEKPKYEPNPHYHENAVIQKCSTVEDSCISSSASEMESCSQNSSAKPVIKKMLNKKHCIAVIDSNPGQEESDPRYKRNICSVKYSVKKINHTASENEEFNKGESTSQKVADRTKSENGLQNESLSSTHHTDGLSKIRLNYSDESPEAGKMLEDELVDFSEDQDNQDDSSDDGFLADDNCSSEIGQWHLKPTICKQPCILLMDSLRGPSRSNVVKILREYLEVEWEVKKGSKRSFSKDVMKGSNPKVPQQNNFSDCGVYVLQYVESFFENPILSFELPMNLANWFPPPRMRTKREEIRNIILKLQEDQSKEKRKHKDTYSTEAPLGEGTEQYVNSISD

[9] = target: T4, Sentrin-specific protease 8 (Homo sapiens, UniProt Q96LD8); type: functional;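 further: luminescence read-out of SENP8 inhibition, dose-response confirmation following an ultra-high-throughput screen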
T4 sequence (Q96LD8 whole entry): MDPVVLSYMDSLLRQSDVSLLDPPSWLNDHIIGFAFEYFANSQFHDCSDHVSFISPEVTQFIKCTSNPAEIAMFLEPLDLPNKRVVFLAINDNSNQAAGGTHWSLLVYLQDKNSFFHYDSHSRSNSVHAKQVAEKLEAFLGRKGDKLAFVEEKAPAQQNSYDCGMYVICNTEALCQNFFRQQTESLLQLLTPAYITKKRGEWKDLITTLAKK

[10] = system: Streptococcus sp. 'group A'; test: growth inhibition of control SK(-) GAS strain, dose response, counter-screen for streptokinase expression inhibitor project, luminescence, kanamycin, BacTiterGlo, confirmation (AID 1900); type: functional, organism-based
Streptokinase A = target: T5, Streptokinase A (Streptococcus pyogenes serotype M1, UniProt P10520); test: S. pyogenes streptokinase expression inhibitors, potency, dose response, plasminogen activation absorbance, OD405 (AID 1914); type: functional, Streptococcus pyogenes M1 GAS;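 further: secreted streptokinase activity via plasminogen activation per viability signal from cell pellet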
T5 sequence (P10520 whole entry): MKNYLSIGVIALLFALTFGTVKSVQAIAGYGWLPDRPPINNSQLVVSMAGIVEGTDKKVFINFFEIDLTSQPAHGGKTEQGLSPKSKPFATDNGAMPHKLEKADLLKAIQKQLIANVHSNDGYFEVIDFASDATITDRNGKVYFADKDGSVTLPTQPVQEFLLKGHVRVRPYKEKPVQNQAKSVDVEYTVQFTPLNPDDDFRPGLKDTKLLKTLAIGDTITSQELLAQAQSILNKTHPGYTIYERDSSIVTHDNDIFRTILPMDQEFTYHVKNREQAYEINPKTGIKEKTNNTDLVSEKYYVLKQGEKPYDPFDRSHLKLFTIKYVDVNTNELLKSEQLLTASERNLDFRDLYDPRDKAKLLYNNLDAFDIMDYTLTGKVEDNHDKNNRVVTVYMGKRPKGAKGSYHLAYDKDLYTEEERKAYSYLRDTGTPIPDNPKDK

Streptococcus = test: Group A Streptococcus viability loss, dose response, counter-screen for streptokinase expression inhibitor project, luminescence, BacTiterGlo (AID 1915); type: functional, organism-based;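 further: potency for reduction of bacterial viability or growth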
cells [11] = type: functional, cell-based
[12] = target: T6, Trace amine-associated receptor 1 (Homo sapiens, UniProt Q96RJ0); test: Fluorescence-based cell-based high throughput dose response assay to identify agonists of the human trace amine associated receptor 1 (TAAR1).; type: functional
T6 sequence (Q96RJ0 whole entry): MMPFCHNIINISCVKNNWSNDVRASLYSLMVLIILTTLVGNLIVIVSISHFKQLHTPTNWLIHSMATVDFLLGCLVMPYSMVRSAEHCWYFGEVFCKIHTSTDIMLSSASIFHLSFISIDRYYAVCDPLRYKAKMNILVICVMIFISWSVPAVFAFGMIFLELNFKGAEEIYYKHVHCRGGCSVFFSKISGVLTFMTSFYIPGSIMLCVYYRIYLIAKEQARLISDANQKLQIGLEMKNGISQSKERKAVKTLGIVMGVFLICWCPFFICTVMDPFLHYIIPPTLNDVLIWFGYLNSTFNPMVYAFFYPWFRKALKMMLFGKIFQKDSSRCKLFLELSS

[13] = target: T6, Trace amine-associated receptor 1; test: Counterscreen for agonists of the human trace amine associated receptor 1 (hTAAR1): Fluorescence-based cell-based high throughput dose response assay to identify hTAAR1 agonist that also desensitize TAAR1 receptor response.; type: functional
cells [14] = type: functional, cell-based; remark: listed apart in the source
[15] = target: Histone-lysine N-methyltransferase NSD2 (Homo sapiens, UniProt O96028); type: biochemical
Galanin receptor type 3 = Galanin receptor type 3 (Homo sapiens, UniProt O60755); test: Fluorescence-based cell-based primary high throughput dose response assay to identify antagonists of the Galanin Receptor 3 (GalR3).; type: functional
cells [16] = type: functional, cell-based; settings: HEK-CNG

Sequence of SWI/SNF-related matrix-associated actin-dependent regulator of chromatin subfamily A member 2 (P51531 whole entry): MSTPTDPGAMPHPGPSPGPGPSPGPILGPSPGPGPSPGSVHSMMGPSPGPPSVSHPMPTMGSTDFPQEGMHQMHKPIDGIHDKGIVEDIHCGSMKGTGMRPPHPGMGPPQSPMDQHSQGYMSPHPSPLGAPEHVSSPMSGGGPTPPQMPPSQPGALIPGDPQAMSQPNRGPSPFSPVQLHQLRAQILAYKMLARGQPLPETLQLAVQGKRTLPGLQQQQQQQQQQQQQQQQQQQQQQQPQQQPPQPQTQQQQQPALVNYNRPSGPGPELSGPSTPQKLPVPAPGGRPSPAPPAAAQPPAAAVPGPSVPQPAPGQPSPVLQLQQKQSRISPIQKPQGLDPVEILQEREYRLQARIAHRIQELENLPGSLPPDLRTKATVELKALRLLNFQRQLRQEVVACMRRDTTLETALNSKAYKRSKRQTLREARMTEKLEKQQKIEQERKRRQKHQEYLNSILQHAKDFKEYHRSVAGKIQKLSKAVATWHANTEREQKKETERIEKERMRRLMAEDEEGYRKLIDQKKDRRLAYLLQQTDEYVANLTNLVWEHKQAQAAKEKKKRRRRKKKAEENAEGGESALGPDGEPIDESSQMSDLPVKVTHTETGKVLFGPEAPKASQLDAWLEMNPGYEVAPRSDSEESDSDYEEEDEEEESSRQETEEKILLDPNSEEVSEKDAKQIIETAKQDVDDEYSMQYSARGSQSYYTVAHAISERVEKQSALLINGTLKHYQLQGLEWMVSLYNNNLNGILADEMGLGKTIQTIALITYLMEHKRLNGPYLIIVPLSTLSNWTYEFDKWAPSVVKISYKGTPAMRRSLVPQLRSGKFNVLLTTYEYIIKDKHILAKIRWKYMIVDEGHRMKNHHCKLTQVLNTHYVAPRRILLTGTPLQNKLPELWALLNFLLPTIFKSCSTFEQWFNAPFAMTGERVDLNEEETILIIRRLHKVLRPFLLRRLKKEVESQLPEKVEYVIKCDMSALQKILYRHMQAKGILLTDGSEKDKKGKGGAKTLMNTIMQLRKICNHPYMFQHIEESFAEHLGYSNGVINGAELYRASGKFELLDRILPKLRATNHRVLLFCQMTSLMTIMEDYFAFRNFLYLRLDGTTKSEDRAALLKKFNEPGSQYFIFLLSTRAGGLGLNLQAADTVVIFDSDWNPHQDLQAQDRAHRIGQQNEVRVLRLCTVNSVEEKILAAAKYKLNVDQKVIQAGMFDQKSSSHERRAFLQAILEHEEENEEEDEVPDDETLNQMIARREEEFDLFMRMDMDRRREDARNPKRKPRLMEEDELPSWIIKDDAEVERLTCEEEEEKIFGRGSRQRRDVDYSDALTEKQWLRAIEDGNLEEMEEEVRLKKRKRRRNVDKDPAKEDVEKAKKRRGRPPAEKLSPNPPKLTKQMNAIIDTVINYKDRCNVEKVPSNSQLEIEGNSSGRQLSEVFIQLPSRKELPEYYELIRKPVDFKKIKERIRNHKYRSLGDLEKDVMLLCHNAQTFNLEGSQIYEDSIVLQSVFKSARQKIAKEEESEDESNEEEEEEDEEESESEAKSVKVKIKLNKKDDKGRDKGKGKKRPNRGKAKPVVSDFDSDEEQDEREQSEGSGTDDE
Sequence of Galanin receptor type 3 (O60755 whole entry): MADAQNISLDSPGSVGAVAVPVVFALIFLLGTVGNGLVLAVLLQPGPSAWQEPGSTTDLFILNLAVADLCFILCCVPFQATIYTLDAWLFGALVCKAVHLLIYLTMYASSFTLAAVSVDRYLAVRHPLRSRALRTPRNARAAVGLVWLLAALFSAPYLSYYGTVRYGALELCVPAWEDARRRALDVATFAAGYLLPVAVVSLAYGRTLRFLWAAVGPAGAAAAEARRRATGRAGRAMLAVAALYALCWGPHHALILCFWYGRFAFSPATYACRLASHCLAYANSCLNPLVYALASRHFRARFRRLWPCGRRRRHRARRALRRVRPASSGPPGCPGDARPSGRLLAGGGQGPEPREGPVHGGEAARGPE
Sequence of Histone-lysine N-methyltransferase NSD2 (O96028 whole entry): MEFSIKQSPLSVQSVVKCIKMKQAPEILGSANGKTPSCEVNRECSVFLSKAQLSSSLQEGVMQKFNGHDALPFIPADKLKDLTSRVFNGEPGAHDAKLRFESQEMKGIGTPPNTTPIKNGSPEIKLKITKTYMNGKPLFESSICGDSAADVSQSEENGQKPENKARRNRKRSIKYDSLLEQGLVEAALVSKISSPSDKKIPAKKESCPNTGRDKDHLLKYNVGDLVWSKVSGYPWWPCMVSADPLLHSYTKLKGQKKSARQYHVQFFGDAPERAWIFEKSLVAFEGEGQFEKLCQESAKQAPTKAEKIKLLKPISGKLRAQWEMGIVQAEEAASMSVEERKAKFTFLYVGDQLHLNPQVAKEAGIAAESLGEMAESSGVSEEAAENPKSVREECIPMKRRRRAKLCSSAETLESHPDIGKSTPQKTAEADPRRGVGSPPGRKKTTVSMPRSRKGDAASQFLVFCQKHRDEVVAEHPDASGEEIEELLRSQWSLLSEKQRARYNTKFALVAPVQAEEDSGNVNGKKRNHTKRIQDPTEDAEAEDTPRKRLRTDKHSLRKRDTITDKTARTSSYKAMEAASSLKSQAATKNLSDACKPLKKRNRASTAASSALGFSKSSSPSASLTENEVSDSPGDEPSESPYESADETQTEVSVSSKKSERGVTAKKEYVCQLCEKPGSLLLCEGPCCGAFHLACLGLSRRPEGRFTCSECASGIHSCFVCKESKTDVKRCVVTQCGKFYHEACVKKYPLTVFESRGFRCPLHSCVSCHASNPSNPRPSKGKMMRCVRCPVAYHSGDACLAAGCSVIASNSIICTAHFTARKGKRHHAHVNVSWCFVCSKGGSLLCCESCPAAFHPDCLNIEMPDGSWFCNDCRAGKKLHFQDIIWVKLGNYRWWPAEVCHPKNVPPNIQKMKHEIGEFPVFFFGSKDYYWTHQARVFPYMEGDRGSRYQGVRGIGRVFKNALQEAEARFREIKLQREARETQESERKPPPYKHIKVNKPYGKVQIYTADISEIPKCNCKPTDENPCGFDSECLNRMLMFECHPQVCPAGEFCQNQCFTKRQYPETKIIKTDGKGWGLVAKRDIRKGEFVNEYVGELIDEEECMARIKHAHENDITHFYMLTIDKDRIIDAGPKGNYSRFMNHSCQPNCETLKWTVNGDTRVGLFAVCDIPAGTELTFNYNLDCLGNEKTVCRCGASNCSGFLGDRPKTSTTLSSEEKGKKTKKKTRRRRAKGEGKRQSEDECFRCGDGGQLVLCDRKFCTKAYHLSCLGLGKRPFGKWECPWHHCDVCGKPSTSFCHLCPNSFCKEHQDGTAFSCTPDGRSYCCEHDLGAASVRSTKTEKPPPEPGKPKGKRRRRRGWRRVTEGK

Question: Which results are given for O=C(Nc1nc2ccccc2s1)c1ccc2sc([C@H]3C[C@H](O)[C@@H](CO)O3)nc2c1?
Answer: AC50 [1]: > 52 µM (inactive); AC50 [2]: 18.2 µM (active); AC50 [3]: 18.5 µM (active); AC50 [4]: > 52 µM (inactive)

Question: Which EC50 [5] does the source give for OCC1OC(n2cnc3c(SCc4ccccc4)ncnc32)C(O)C1O (stereo not drawn) here?
Answer: > 91.3 µM (inactive)

Question: And the EC50 [6]?
Answer: > 91.3 µM (inactive)

Question: For CC(C)c1ccc(Nc2ncc3c(n2)CCN(C(=O)Nc2ccc(F)c(Cl)c2)C3)cc1, which AC50 (Vero) is on record?
Answer: 21 µM (active)

Question: For Cc1cc(Cl)c2oc(C(=O)N(C)CCCCN3CCOCC3)c(C)c2c1, which AC50 (Vero) is on record?
Answer: 30.2 µM (active)

Question: With Fc1cccc(F)c1-c1nc(-c2ccc(Cl)cc2)no1 as the molecule, how does the IC50 (Caspase-3) read?
Answer: 25.2 µM (active)

Question: And the IC50 [7]?
Answer: 3.99 µM (active)

Question: And the IC50 [8]?
Answer: 5.78 µM (active)

Question: And the IC50 [9]?
Answer: 21.8 µM (active)

Question: What about the EC50 [5] of the same molecule?
Answer: > 91.2 µM (inactive)

Question: And the EC50 [6]?
Answer: > 91.2 µM (inactive)

Question: For CCN(CCn1cccn1)C(=O)CC1C(=O)NCCN1CCc1ccccc1 (stereo not drawn), which EC50 [10] is on record?
Answer: > 150 µM (not active)

Question: What about the EC50 (Streptokinase A) of the same molecule?
Answer: > 150 µM (not active)

Question: And the EC50 (Streptococcus)?
Answer: > 150 µM (not active)

Question: And the IC50 (cells [11])?
Answer: > 29.9 µM (inactive)

Question: And the EC50 [12]?
Answer: 1.31 µM (active)

Question: What about the IC50 [13] of the same molecule?
Answer: 2.2 µM (active)

Question: And the EC50 (cells [14])?
Answer: > 29.9 µM (inactive)

Question: With CCCN(CCC)CCCNC(=O)c1ccc(CS(=O)(=O)c2c(Cl)cccc2Cl)o1 as the molecule, how does the AC50 [15] read?
Answer: > 20 µM (inactive)

Question: For CC(Cc1ccccc1)NC=O (stereo not drawn) [FORMETOREX], which IC50 (cells [11]) is on record?
Answer: > 29.9 µM (inactive)

Question: And the EC50 [12]?
Answer: 0.576 µM (active)

Question: And the IC50 [13]?
Answer: 2.27 µM (active)

Question: And the EC50 (cells [14])?
Answer: > 29.9 µM (inactive)

Question: For Clc1cccc(CN2CCN(c3ncc(Cc4ccccc4)cn3)CC2)c1Cl, which IC50 (Galanin receptor type 3) is on record?
Answer: > 0.369 µM (active)

Question: And the EC50 (cells [16])?
Answer: > 29.9 µM (inactive)
